Experimental data taken from publication PMC6584941 (Cancer Letters, 2019).
Substitutions are numbered along the chain they refer to. Square brackets hold non-standard residues; d marks the D form. Ends that are not written are not given here. pY = N[C@@H](Cc1ccc(OP(=O)(O)O)cc1)C(=O)O

T1: Shc (PTB domain, Shc^PTB) (Homo sapiens, UniProt P29353)
T1 sequence (P29353 156-339 limits assumed): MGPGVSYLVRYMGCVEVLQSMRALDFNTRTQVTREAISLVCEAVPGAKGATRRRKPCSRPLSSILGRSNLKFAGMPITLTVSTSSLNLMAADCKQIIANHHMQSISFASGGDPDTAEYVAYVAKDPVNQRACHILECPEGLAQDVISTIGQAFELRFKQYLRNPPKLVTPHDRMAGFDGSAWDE

T2: Shc (PTB domain, Shc^PTB R175Q) (Homo sapiens, UniProt P29353, R285Q)
T2 sequence (P29353 156-339 R285Q limits assumed): T1 sequence (P29353 156-339 limits assumed) with R130Q

T3: Shc phosphotyrosine binding (PTB) domain (UniProt P29353-2 17-207, Atto488 label, 1:1 protein:dye (in the MST only))
T3 sequence: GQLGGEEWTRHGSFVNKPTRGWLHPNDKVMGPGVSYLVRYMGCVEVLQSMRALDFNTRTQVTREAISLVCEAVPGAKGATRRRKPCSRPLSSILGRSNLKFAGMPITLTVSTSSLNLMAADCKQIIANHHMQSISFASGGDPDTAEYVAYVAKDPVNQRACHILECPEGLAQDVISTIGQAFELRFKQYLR


What was measured:
[1] = biological target: T1, Shc (PTB domain, Shc^PTB); assay: ITC; assay type: binding
[2] = biological target: T2, Shc (PTB domain, Shc^PTB R175Q); assay: MST with Atto488-labelled Shc^PTB R175Q; assay type: binding
[3] = biological target: T3, Shc phosphotyrosine binding (PTB) domain; assay: MST

Kd [1]	Kd [2]	Kd [3]	Molecule
38.2 ± 7.2 µM	590 ± 54 µM	–	COc1ccc2c(c1)c(CC(=O)O)c(C)n2C(=O)c1ccc(Cl)cc1 [indomethacin]
–	–	0.261 µM	SPAFDNLY[pY]WDQ [ErbB2 pY1122 peptide]
